Data set [1] can be described thus: Cytotoxicity against African green monkey Vero cells assessed as growth inhibition after 48 hrs. It counts as cell-based. To be noted: chlorocebus sabaeus, read-out: TC50.
The subject of data set [2] is Coxsackievirus B3. Kind of data set: Antivirus activity against Coxsackievirus B3 infected in African green monkey vero cells assessed as inhibition of virus-induced cytopathic effect. It counts as functional, organism-based. Conditions: Enterovirus B.
Data set [3] in a line: Selectivity index, ratio of TC50 for African green monkey vero cells to IC50 for Coxsackievirus B3. It counts as toxicity, cell-based. Conditions: read-out: Selectivity Index.

What is called IC50 is the midpoint of a concentration-inhibition curve. As to `CN1CCN(CCCC[C@@H]2[C@H]3CCCN4CCC[C@@H](CN2S(=O)(=O)c2cccc(C#N)c2)[C@@H]34)CC1`, in data set [1], the CC50 at 48 h came to 116 µM. Further, in data set [2], the IC50 was greater than 22.2 µM.

Turning to `CN1CCN(CCCC[C@@H]2[C@H]3CCCN4CCC[C@@H](CN2S(=O)(=O)c2ccc(C#N)cc2)[C@@H]34)CC1`, in data set [2], the half-inhibitory concentration (IC50) was greater than 22.2 µM.

With `N#Cc1ccc(S(=O)(=O)N2C[C@@H]3CCCN4CCC[C@@H]([C@H]34)[C@H]2CCCCN2CCOCC2)cc1`, the CC50 at 48 h in data set [1] stood at 96.2 µM. Also, the IC50 in data set [2] is greater than 22.2 µM.

In the case of `CN(C)CCCC[C@@H]1[C@H]2CCCN3CCC[C@@H](CN1S(=O)(=O)c1ccc(C#N)cc1)[C@@H]23`, the CC50 at 48 h in data set [1] was 96.2 µM. Also, in data set [2], the half-inhibitory concentration (IC50) is greater than 22.2 µM.

As for `CN1CCN(CCCC[C@@H]2[C@H]3CCCN4CCC[C@@H](CN2S(=O)(=O)c2cccc(C(F)(F)F)c2)[C@@H]34)CC1`, in data set [1], the CC50 at 48 h was 51.5 µM. In addition, the IC50 in data set [2] is greater than 7.4 µM.

For the compound `CC(=O)c1ccc(S(=O)(=O)N2C[C@@H]3CCCN4CCC[C@@H]([C@H]34)[C@H]2CCCCN2CCN(C)CC2)cc1`, the IC50 in data set [2] is greater than 22.2 µM.

On to `CC(=O)c1ccc(S(=O)(=O)N2C[C@@H]3CCCN4CCC[C@@H]([C@H]34)[C@H]2CCCCN2CCOCC2)cc1`, for which the half-inhibitory concentration (IC50) in data set [2] was greater than 22.2 µM.

On to `CC(=O)c1ccc(S(=O)(=O)N2C[C@@H]3CCCN4CCC[C@@H]([C@H]34)[C@H]2CCCCN(C)C)cc1`, for which the IC50 in data set [2] was greater than 22.2 µM.

For the compound `COC(=O)c1ccc(S(=O)(=O)N2C[C@@H]3CCCN4CCC[C@@H]([C@H]34)[C@H]2CCCCN2CCN(C)CC2)cc1`, the IC50 in data set [2] was greater than 22.2 µM.

As to `CN1CCN(CCCC[C@@H]2[C@H]3CCCN4CCC[C@@H](CN2S(=O)(=O)c2ccc(S(C)(=O)=O)cc2)[C@@H]34)CC1`, in data set [2], the half-maximal inhibitory concentration (IC50) is greater than 22.2 µM.

For the compound `COCCCC[C@@H]1[C@H]2CCCN3CCC[C@@H](CN1S(=O)(=O)c1cccc(C#N)c1)[C@@H]23`, the CC50 at 48 h in data set [1] is 332 µM. Moreover, the IC50 in data set [2] was determined as 8.41 µM. In addition, the selectivity ratio in data set [3] was found to be 39.5.

Consider `COCCCC[C@@H]1[C@H]2CCCN3CCC[C@@H](CN1S(=O)(=O)c1cccc(C(F)(F)F)c1)[C@@H]23`, for which the CC50 at 48 h in data set [1] came to 75.4 µM. Also, in data set [2], the 50% inhibitory concentration (IC50) turned out to be 1.31 µM. The selectivity ratio in data set [3] was 57.4.

For `COC(=O)CCC[C@@H]1[C@H]2CCCN3CCC[C@@H](CN1S(=O)(=O)c1ccc(OC(F)(F)F)cc1)[C@@H]23`, the CC50 at 48 h in data set [1] was 191 µM. For the same compound, in data set [2], the IC50 came out at 14.7 µM. Also, the selectivity ratio in data set [3] was 13.

`O=S(=O)(c1ccc(OC(F)(F)F)cc1)N1C[C@@H]2CCCN3CCC[C@@H]([C@H]23)[C@H]1CCCCO`: the CC50 at 48 h in data set [1] amounted to 101 µM. Besides, the half-maximal inhibitory concentration (IC50) in data set [2] was 10 µM. In addition, in data set [3], the selectivity ratio worked out at 10.1.

Regarding `O=C(O)CCC[C@@H]1[C@H]2CCCN3CCC[C@@H](CN1S(=O)(=O)c1ccc(OC(F)(F)F)cc1)[C@@H]23`, the CC50 at 48 h in data set [1] is greater than 380 µM. The IC50 in data set [2] was greater than 127 µM.

Turning to `CC(=O)c1ccc(S(=O)(=O)N2C[C@@H]3CCCN4CCC[C@@H]([C@H]34)[C@H]2CCCC(=O)O)cc1`, the CC50 at 48 h in data set [1] is greater than 413 µM. Moreover, the IC50 in data set [2] was greater than 138 µM.

As to `O=C(CCC[C@@H]1[C@H]2CCCN3CCC[C@@H](CN1S(=O)(=O)c1cccc(C(F)(F)F)c1)[C@@H]23)N1CCOCC1`, in data set [1], the CC50 at 48 h worked out at 156 µM. The IC50 in data set [2] stood at 3.95 µM. Moreover, the selectivity ratio in data set [3] stood at 38.9.

With `NC(=O)CCC[C@@H]1[C@H]2CCCN3CCC[C@@H](CN1S(=O)(=O)c1cccc(C(F)(F)F)c1)[C@@H]23`, in data set [1], the CC50 at 48 h was determined as 177 µM. Further, in data set [2], the IC50 is 4.33 µM. Moreover, in data set [3], the selectivity ratio was 40.8.

Consider `CNC(=O)CCC[C@@H]1[C@H]2CCCN3CCC[C@@H](CN1S(=O)(=O)c1cccc(C(F)(F)F)c1)[C@@H]23`, for which the CC50 at 48 h in data set [1] worked out at 172 µM. Also, the IC50 in data set [2] was 2.56 µM. Besides, the selectivity ratio in data set [3] came out at 67.2.

On to `CN(C)C(=O)CCC[C@@H]1[C@H]2CCCN3CCC[C@@H](CN1S(=O)(=O)c1cccc(C(F)(F)F)c1)[C@@H]23`, for which the CC50 at 48 h in data set [1] is 168 µM. Further, the half-maximal inhibitory concentration (IC50) in data set [2] was determined as 2.49 µM. In addition, the selectivity ratio in data set [3] is 67.2.

Turning to `CC(=O)c1ccc(S(=O)(=O)N2C[C@@H]3CCCN4CCC[C@@H]([C@H]34)[C@H]2CCCC(=O)N2CCOCC2)cc1`, in data set [1], the CC50 at 48 h was greater than 361 µM. Moreover, the concentration for half-maximal inhibition (IC50) in data set [2] is greater than 118 µM.

As to `CC(=O)c1ccc(S(=O)(=O)N2C[C@@H]3CCCN4CCC[C@@H]([C@H]34)[C@H]2CCCC(=O)N2CCC2)cc1`, the CC50 at 48 h in data set [1] was greater than 382 µM. Further, the IC50 in data set [2] was greater than 127 µM.

As to `CC(=O)c1ccc(S(=O)(=O)N2C[C@@H]3CCCN4CCC[C@@H]([C@H]34)[C@H]2CCCC(=O)N(C)C)cc1`, the CC50 at 48 h in data set [1] was greater than 391 µM. In addition, the concentration for half-maximal inhibition (IC50) in data set [2] was greater than 130 µM.

On to `O=C(CCC[C@@H]1[C@H]2CCCN3CCC[C@@H](CN1S(=O)(=O)c1ccc(OC(F)(F)F)cc1)[C@@H]23)N1CCOCC1`, for which the CC50 at 48 h in data set [1] came to 162 µM. In data set [2], the half-inhibitory concentration (IC50) turned out to be 7.19 µM. Further, the selectivity ratio in data set [3] was 22.5.

As for `O=C(CCC[C@@H]1[C@H]2CCCN3CCC[C@@H](CN1S(=O)(=O)c1ccc(OC(F)(F)F)cc1)[C@@H]23)N1CCC1`, the CC50 at 48 h in data set [1] turned out to be 170 µM. For the same compound, in data set [2], the IC50 was 5.58 µM. Further, the selectivity ratio in data set [3] was determined as 21.2.

`CN(C)C(=O)CCC[C@@H]1[C@H]2CCCN3CCC[C@@H](CN1S(=O)(=O)c1ccc(OC(F)(F)F)cc1)[C@@H]23`: the CC50 at 48 h in data set [1] stood at 174 µM. Moreover, the half-maximal inhibitory concentration (IC50) in data set [2] stood at 2.74 µM. Also, in data set [3], the selectivity ratio is 63.3.

For the compound `COC(=O)CCC[C@@H]1[C@H]2CCCN3CCC[C@@H](CN1S(=O)(=O)c1ccc(C(C)=O)cc1)[C@@H]23`, the CC50 at 48 h in data set [1] was determined as 193 µM. Further, the IC50 in data set [2] was 8.58 µM. Further, the selectivity ratio in data set [3] came to 22.5.

In the case of `COC(=O)CCC[C@@H]1[C@H]2CCCN3CCC[C@@H](CN1S(=O)(=O)c1ccc(/C(C)=N/O)cc1)[C@@H]23`, the CC50 at 48 h in data set [1] was found to be 53.9 µM. Further, the IC50 in data set [2] was greater than 39.3 µM.

In the case of `CC(O)c1ccc(S(=O)(=O)N2C[C@@H]3CCCN4CCC[C@@H]([C@H]34)[C@H]2CCCCO)cc1` (some centres undefined), the CC50 at 48 h in data set [1] was greater than 425 µM. Further, in data set [2], the 50% inhibitory concentration (IC50) is greater than 142 µM.

These data come from ChEMBL document CHEMBL3603764, “Structure-activity relationship of N-benzenesulfonyl matrinic acid derivatives as a novel class of coxsackievirus B3 inhibitors” (Bioorg Med Chem Lett, 2015).
